PMC4050370 (Nature structural & molecular biology, 2014)

Target: LeuT (leucine transporter) (Aquifex aeolicus, UniProt O67854)
Assay: [3H]-Ala uptake in proteoliposomes
Type: biochemical
Conditions: Na+-dependent; 50 mM NaCl, 50 mM Tris-Mes pH 8.5, 22 °C; labelled compound

**Q.** With C[C@H](N)C(=O)O [alanine] as the compound, how does the “[3H]-Ala uptake in proteoliposomes” value read?
**A.** Its value is “we measured Na^+-dependent alanine uptake in proteoliposomes for a large subset of mutants”.
